Earlier results as cited in US20250248986A1, “ANTIFUNGAL DRUG INHALATION FORMULATIONS” (priority 2024, published 2025).
Read-outs that look alike come from different tables or passages of the source.

| SMILES | water solubility (neutral conditions) | water solubility (pH 1) | solubility of the free base (pH of about 6.4 or higher) |
| --- | --- | --- | --- |
| CCC(C)n1ncn(-c2ccc(N3CCN(c4ccc(OCC5COC(Cn6cncn6)(c6ccc(Cl)cc6Cl)O5)cc4)CC3)cc2)c1=O (racemic) [Itraconazole] | about 1 ng/ml | about 1 μg/ml |  |
| CC[C@@H]([C@H](C)O)n1ncn(-c2ccc(N3CCN(c4ccc(OC[C@@H]5CO[C@@](Cn6cncn6)(c6ccc(F)cc6F)C5)cc4)CC3)cc2)c1=O [Posaconazole] |  |  | less than 1 μg/ml |
